Assay results from patent US9980943B2, “Methods of treating muscular dystrophy” (BOARD OF REGENTS OF THE NEVADA SYSTEM OF HIGHER EDUCATION, …, priority 2013, dated 2018).

Key:
Assay type in all cases: cell-based, mouse
[1] = tested on: β-galactosidase in CMV-LacZ C2C12 myotubes; experiment: CMV-LacZ secondary screen in C2C12 myotubes (β-Gal stabilizing assay); settings: for CMV-LACZ in Myotubes, signal relative to DMSO: C2C12 CMV-LacZ myotubes, fold relative to DMSO; for CMV-LACZ in Myotubes, value relative to DMSO: SU9516 analogs, C2C12 CMV-LacZ, N=2
Method in brief: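 First, C2C12 myoblasts were transfected with a linearized CMV-LACZ vector and clonal lines selected by FDG β-gal assay. Then cells were exposed to compounds at 0.5, 1, 5, 10, 20 and 40 μM in 96-well format, two replicates each, and β-gal measured.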

[2] = tested on: α7 integrin (LacZ reporter in α7+/LacZ myotubes); experiment: Myotube α7 integrin FDG assay (Burkin assay in myotubes, 96-well); settings: for Burkin Assay in Myotubes, value relative to DMSO: SU9516 analogs, 96-well, N=3-6
[3] = tested on: β-galactosidase in CMV-LacZ C2C12 myoblasts; experiment: CMV-LacZ secondary screen in C2C12 myoblasts (β-Gal stabilizing assay); settings: for CMV-LACZ in Myoblasts (β-galactosidase activity relative to DMSO): CMV-LacZ C2C12 myoblasts; for CMV-LACZ in Myoblasts, value relative to DMSO: SU9516 analogs, C2C12 CMV-LacZ, N=2
Method in brief: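 β-Gal level was the read-out, measured in a clonal C2C12 line expressing LacZ from a CMV promoter. Dose-response curves used six concentrations, 0.5 μM up to 40 μM, with duplicate points.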

[4] = tested on: α7 integrin (LacZ reporter in α7βgal+/− myoblasts); experiment: Myoblast α7+/LacZ integrin FDG assay (Burkin assay in myoblasts, 96-well); settings: 96-well; for Burkin Assay in Myoblasts, signal relative to DMSO: α7+/LacZ myoblasts; for Burkin Assay in Myoblasts, value relative to DMSO: SU9516 analogs, N=3-6

O=C(Nc1ccccc1Cl)C1CCCN1C(=O)OCc1ccccc1 (stereo not drawn) [MLS001030621-01]
CMV-LACZ in Myotubes, signal relative to DMSO ([1]; 0.5 uM): 0.7844 | CMV-LACZ in Myotubes, signal relative to DMSO ([1]; 1 uM): 0.7970 | CMV-LACZ in Myotubes, signal relative to DMSO ([1]; 5 uM): 0.9872 | CMV-LACZ in Myotubes, signal relative to DMSO ([1]; 10 uM): 1.0546 | CMV-LACZ in Myotubes, signal relative to DMSO ([1]; 20 uM): 0.9024 | CMV-LACZ in Myotubes, signal relative to DMSO ([1]; 40 uM): 1.0141 | Burkin Assay in Myotubes, α7 integrin LacZ reporter signal relative to DMSO ([2]; 0.5 uM): 0.9724 | Burkin Assay in Myotubes, α7 integrin LacZ reporter signal relative to DMSO ([2]; 1 uM): 0.9493 | Burkin Assay in Myotubes, α7 integrin LacZ reporter signal relative to DMSO ([2]; 5 uM): 0.999 | Burkin Assay in Myotubes, α7 integrin LacZ reporter signal relative to DMSO ([2]; 10 uM): 0.9429 | Burkin Assay in Myotubes, α7 integrin LacZ reporter signal relative to DMSO ([2]; 20 uM): 0.7954 | Burkin Assay in Myotubes, α7 integrin LacZ reporter signal relative to DMSO ([2]; 40 uM): 0.7203 | CMV-LACZ in Myoblasts (β-galactosidase activity relative to DMSO) ([3]; 0.5 uM): 0.7081 | CMV-LACZ in Myoblasts (β-galactosidase activity relative to DMSO) ([3]; 1 uM): 1.0531 | CMV-LACZ in Myoblasts (β-galactosidase activity relative to DMSO) ([3]; 5 uM): 1.0494 | CMV-LACZ in Myoblasts (β-galactosidase activity relative to DMSO) ([3]; 10 uM): 1.1844 | CMV-LACZ in Myoblasts (β-galactosidase activity relative to DMSO) ([3]; 20 uM): 1.0307 | CMV-LACZ in Myoblasts (β-galactosidase activity relative to DMSO) ([3]; 40 uM): 0.9063 | Burkin Assay in Myoblasts, signal relative to DMSO ([4]; 0.5 uM): 1.004 | Burkin Assay in Myoblasts, signal relative to DMSO ([4]; 1 uM): 1.158 | Burkin Assay in Myoblasts, signal relative to DMSO ([4]; 5 uM): 1.15 | Burkin Assay in Myoblasts, signal relative to DMSO ([4]; 10 uM): 1.161 | Burkin Assay in Myoblasts, signal relative to DMSO ([4]; 20 uM): 1.001 | Burkin Assay in Myoblasts, signal relative to DMSO ([4]; 40 uM): 1.01

CN1CCN(c2ccccc2/C=C2/C(=O)Nc3ccccc32)CC1 [MLS001182377-01]
CMV-LACZ in Myotubes, value relative to DMSO ([1]; 0.5 uM): 0.7762 | CMV-LACZ in Myotubes, value relative to DMSO ([1]; 1 uM): 0.8105 | CMV-LACZ in Myotubes, value relative to DMSO ([1]; 5 uM): 0.9608 | CMV-LACZ in Myotubes, value relative to DMSO ([1]; 10 uM): 1.0589 | CMV-LACZ in Myotubes, value relative to DMSO ([1]; 20 uM): 1.0305 | CMV-LACZ in Myotubes, value relative to DMSO ([1]; 40 uM): 1.0263 | Burkin Assay in Myotubes, value relative to DMSO ([2]; 0.5 uM): 1.015 | Burkin Assay in Myotubes, value relative to DMSO ([2]; 1 uM): 1.021 | Burkin Assay in Myotubes, value relative to DMSO ([2]; 5 uM): 0.9372 | Burkin Assay in Myotubes, value relative to DMSO ([2]; 10 uM): 0.9389 | Burkin Assay in Myotubes, value relative to DMSO ([2]; 20 uM): 0.8654 | Burkin Assay in Myotubes, value relative to DMSO ([2]; 40 uM): 0.9149 | CMV-LACZ in Myoblasts, value relative to DMSO ([3]; 0.5 uM): 1.1229 | CMV-LACZ in Myoblasts, value relative to DMSO ([3]; 1 uM): 1.1646 | CMV-LACZ in Myoblasts, value relative to DMSO ([3]; 5 uM): 0.9113 | CMV-LACZ in Myoblasts, value relative to DMSO ([3]; 10 uM): 0.9294 | CMV-LACZ in Myoblasts, value relative to DMSO ([3]; 20 uM): 0.4441 | CMV-LACZ in Myoblasts, value relative to DMSO ([3]; 40 uM): 0.4170 | Burkin Assay in Myoblasts, value relative to DMSO ([4]; 0.5 uM): 1.179 | Burkin Assay in Myoblasts, value relative to DMSO ([4]; 1 uM): 1.045 | Burkin Assay in Myoblasts, value relative to DMSO ([4]; 5 uM): 0.915 | Burkin Assay in Myoblasts, value relative to DMSO ([4]; 10 uM): 0.9061 | Burkin Assay in Myoblasts, value relative to DMSO ([4]; 20 uM): 0.8744 | Burkin Assay in Myoblasts, value relative to DMSO ([4]; 40 uM): 0.6176

CC(C)(C)Nc1nc(-c2ccc3c(c2)CCN3C(=O)C2CC2)cs1 [MLS001216939-01]
CMV-LACZ in Myotubes, signal relative to DMSO ([1]; 0.5 uM): 1.0311 | CMV-LACZ in Myotubes, signal relative to DMSO ([1]; 1 uM): 0.9748 | CMV-LACZ in Myotubes, signal relative to DMSO ([1]; 5 uM): 1.1826 | CMV-LACZ in Myotubes, signal relative to DMSO ([1]; 10 uM): 1.2568 | CMV-LACZ in Myotubes, signal relative to DMSO ([1]; 20 uM): 1.1518 | CMV-LACZ in Myotubes, signal relative to DMSO ([1]; 40 uM): 0.9659 | Burkin Assay in Myotubes, α7 integrin LacZ reporter signal relative to DMSO ([2]; 0.5 uM): 1.193 | Burkin Assay in Myotubes, α7 integrin LacZ reporter signal relative to DMSO ([2]; 1 uM): 1.185 | Burkin Assay in Myotubes, α7 integrin LacZ reporter signal relative to DMSO ([2]; 5 uM): 1.07 | Burkin Assay in Myotubes, α7 integrin LacZ reporter signal relative to DMSO ([2]; 10 uM): 1.06 | Burkin Assay in Myotubes, α7 integrin LacZ reporter signal relative to DMSO ([2]; 20 uM): 0.8529 | Burkin Assay in Myotubes, α7 integrin LacZ reporter signal relative to DMSO ([2]; 40 uM): 0.4743 | CMV-LACZ in Myoblasts (β-galactosidase activity relative to DMSO) ([3]; 0.5 uM): 1.0991 | CMV-LACZ in Myoblasts (β-galactosidase activity relative to DMSO) ([3]; 1 uM): 1.1134 | CMV-LACZ in Myoblasts (β-galactosidase activity relative to DMSO) ([3]; 5 uM): 1.0913 | CMV-LACZ in Myoblasts (β-galactosidase activity relative to DMSO) ([3]; 10 uM): 0.9452 | CMV-LACZ in Myoblasts (β-galactosidase activity relative to DMSO) ([3]; 20 uM): 1.1863 | CMV-LACZ in Myoblasts (β-galactosidase activity relative to DMSO) ([3]; 40 uM): 1.0644 | Burkin Assay in Myoblasts, signal relative to DMSO ([4]; 0.5 uM): 1.123 | Burkin Assay in Myoblasts, signal relative to DMSO ([4]; 1 uM): 1.2827 | Burkin Assay in Myoblasts, signal relative to DMSO ([4]; 5 uM): 1.111 | Burkin Assay in Myoblasts, signal relative to DMSO ([4]; 10 uM): 0.9828 | Burkin Assay in Myoblasts, signal relative to DMSO ([4]; 20 uM): 0.8633 | Burkin Assay in Myoblasts, signal relative to DMSO ([4]; 40 uM): 0.7865

N#Cc1nc(COc2ccccc2)oc1N1CCCC1 [MLS000036988-01]
CMV-LACZ in Myotubes, signal relative to DMSO ([1]; 0.5 uM): 0.9867 | CMV-LACZ in Myotubes, signal relative to DMSO ([1]; 1 uM): 0.8905 | CMV-LACZ in Myotubes, signal relative to DMSO ([1]; 5 uM): 0.8979 | CMV-LACZ in Myotubes, signal relative to DMSO ([1]; 10 uM): 1.0868 | CMV-LACZ in Myotubes, signal relative to DMSO ([1]; 20 uM): 0.7116 | CMV-LACZ in Myotubes, signal relative to DMSO ([1]; 40 uM): 0.5021 | Burkin Assay in Myotubes, α7 integrin LacZ reporter signal relative to DMSO ([2]; 0.5 uM): 0.8553 | Burkin Assay in Myotubes, α7 integrin LacZ reporter signal relative to DMSO ([2]; 1 uM): 0.7577 | Burkin Assay in Myotubes, α7 integrin LacZ reporter signal relative to DMSO ([2]; 5 uM): 0.8099 | Burkin Assay in Myotubes, α7 integrin LacZ reporter signal relative to DMSO ([2]; 10 uM): 0.8223 | Burkin Assay in Myotubes, α7 integrin LacZ reporter signal relative to DMSO ([2]; 20 uM): 0.4172 | Burkin Assay in Myotubes, α7 integrin LacZ reporter signal relative to DMSO ([2]; 40 uM): 0.104 | CMV-LACZ in Myoblasts (β-galactosidase activity relative to DMSO) ([3]; 0.5 uM): 1.0767 | CMV-LACZ in Myoblasts (β-galactosidase activity relative to DMSO) ([3]; 1 uM): 1.0846 | CMV-LACZ in Myoblasts (β-galactosidase activity relative to DMSO) ([3]; 5 uM): 0.9702 | CMV-LACZ in Myoblasts (β-galactosidase activity relative to DMSO) ([3]; 10 uM): 1.0435 | CMV-LACZ in Myoblasts (β-galactosidase activity relative to DMSO) ([3]; 20 uM): 0.8796 | CMV-LACZ in Myoblasts (β-galactosidase activity relative to DMSO) ([3]; 40 uM): 0.6578 | Burkin Assay in Myoblasts, signal relative to DMSO ([4]; 0.5 uM): 1.189 | Burkin Assay in Myoblasts, signal relative to DMSO ([4]; 1 uM): 1.0825 | Burkin Assay in Myoblasts, signal relative to DMSO ([4]; 5 uM): 0.8657 | Burkin Assay in Myoblasts, signal relative to DMSO ([4]; 10 uM): 0.8256 | Burkin Assay in Myoblasts, signal relative to DMSO ([4]; 20 uM): 0.9023 | Burkin Assay in Myoblasts, signal relative to DMSO ([4]; 40 uM): 0.6581
